According to ChEMBL document CHEMBL4316582, “Nitro-Group-Containing Drugs” (J Med Chem, 2019):
In brackets after ≈: the same amount, converted by molar mass.

test system: Mycobacterium tuberculosis; assay: Antitubercular activity against multidrug-resistant Mycobacterium tuberculosis; format: functional

Compound | MIC [µg/mL]
O=[N+]([O-])C1CN2C[C@H](OCc3ccc(OC(F)(F)F)cc3)COC2=N1 (stereo partly drawn) | 0.039 to 0.531 (≈ 0.108 to 1.47 µM)
[O-]/[N+](O)=C1/CN2C[C@H](OCc3ccc(OC(F)(F)F)cc3)COC2=N1 | 0.039 to 0.531 (≈ 0.108 to 1.47 µM)
FC(F)(F)Oc1ccc(CO[C@@H]2COc3nccn3C2)cc1 | 0.039 to 0.531 (≈ 0.124 to 1.69 µM)
